The source of these data is ChEMBL document CHEMBL5724914, “Linking interpersonal differences in gut microbiota composition and drug biotransformation activity” (2024).

Series [1] can be described thus: The drug is tested on Z-027 corresponding to metagenome with ENA study accession number: PRJEB37062 and ENA sample accession number: ERS12561826 for biotransformation under anaerobic condition. The drug concentrations were measured over 9 timepoints collected between 0 and 24 hours of incubation by liquid-chromatography-coupled mass spectrometry (LC–MS). Conditions: 2 µM.

Series [2] can be described thus: The drug is tested on Z-023 corresponding to metagenome with ENA study accession number: PRJEB37062 and ENA sample accession number: ERS12561822 for biotransformation under anaerobic condition. The drug concentrations were measured over 9 timepoints collected between 0 and 24 hours of incubation by liquid-chromatography-coupled mass spectrometry (LC–MS). Conditions: 2 µM.

Series [3] is described as follows: The drug is tested on Z-019 corresponding to rat gut metagenome with ENA study accession number: PRJEB37062 and ENA sample accession number: ERS12561818 for biotransformation under anaerobic condition. The drug concentrations were measured over 9 timepoints collected between 0 and 24 hours of incubation by liquid-chromatography-coupled mass spectrometry (LC–MS). The conditions noted are these: 2 µM.

A short description of series [4]: The drug is tested on Z-018 corresponding to pig gut metagenome with ENA study accession number: PRJEB37062 and ENA sample accession number: ERS12561817 for biotransformation under anaerobic condition. The drug concentrations were measured over 9 timepoints collected between 0 and 24 hours of incubation by liquid-chromatography-coupled mass spectrometry (LC–MS). Conditions: 2 µM.

Series [5] in a line: The drug is tested on Z-016 corresponding to mouse gut metagenome with ENA study accession number: PRJEB37062 and ENA sample accession number: ERS12561815 for biotransformation under anaerobic condition. The drug concentrations were measured over 9 timepoints collected between 0 and 24 hours of incubation by liquid-chromatography-coupled mass spectrometry (LC–MS). The conditions noted are these: 2 µM.

Series [6] in a line: The drug is tested on Z-014 corresponding to rat gut metagenome with ENA study accession number: PRJEB37062 and ENA sample accession number: ERS12561814 for biotransformation under anaerobic condition. The drug concentrations were measured over 9 timepoints collected between 0 and 24 hours of incubation by liquid-chromatography-coupled mass spectrometry (LC–MS). The conditions noted are these: 2 µM.

A short description of series [7]: The drug is tested on Z-012 corresponding to metagenome with ENA study accession number: PRJEB37062 and ENA sample accession number: ERS12561812 for biotransformation under anaerobic condition. The drug concentrations were measured over 9 timepoints collected between 0 and 24 hours of incubation by liquid-chromatography-coupled mass spectrometry (LC–MS). Conditions: 2 µM.

Series [8] in a line: The drug is tested on Z-004 corresponding to metagenome with ENA study accession number: PRJEB37062 and ENA sample accession number: ERS12561804 for biotransformation under anaerobic condition. The drug concentrations were measured over 9 timepoints collected between 0 and 24 hours of incubation by liquid-chromatography-coupled mass spectrometry (LC–MS). Conditions: 2 µM.
Series [9] in a line: The drug is tested on WLS-310 corresponding to human gut metagenome with ENA study accession number: PRJEB37062 and ENA sample accession number: ERS12561785 for biotransformation under anaerobic condition. The drug concentrations were measured over 9 timepoints collected between 0 and 24 hours of incubation by liquid-chromatography-coupled mass spectrometry (LC–MS). Conditions: 2 µM.

A short description of series [10]: The drug is tested on WLS-220 corresponding to human gut metagenome with ENA study accession number: PRJEB37062 and ENA sample accession number: ERS12561769 for biotransformation under anaerobic condition. The drug concentrations were measured over 9 timepoints collected between 0 and 24 hours of incubation by liquid-chromatography-coupled mass spectrometry (LC–MS). Conditions: 2 µM.

Series [11] is described as follows: The drug is tested on WLS-090 corresponding to human gut metagenome with ENA study accession number: PRJEB37062 and ENA sample accession number: ERS12561753 for biotransformation under anaerobic condition. The drug concentrations were measured over 9 timepoints collected between 0 and 24 hours of incubation by liquid-chromatography-coupled mass spectrometry (LC–MS). The conditions noted are these: 2 µM.

For series [12] the following is noted: human gut metagenome, 24 h, 2 µM.
For series [13] the following is noted: human gut metagenome, 24 h, 2 µM. The source holds these as a separate data set.
For series [14] the following is noted: human gut metagenome, 24 h, 2 µM. This is another data set of the same source.
For series [15] the following is noted: human gut metagenome, 24 h, 2 µM. The source holds these as a separate data set.
For series [16] the following is noted: human gut metagenome, 24 h, 2 µM. This is another data set of the same source.
For series [17] the following is noted: human gut metagenome, 24 h, 2 µM. The source holds these as a separate data set.
For series [18] the following is noted: human gut metagenome, 24 h, 2 µM. The source holds these as a separate data set.
For series [19] the following is noted: human gut metagenome, 24 h, 2 µM. This is another data set of the same source.
The conditions of series [20]: human gut metagenome, 24 h, 2 µM. This is another data set of the same source.
Note: call rule not given here.

In the case of `CN(CCOc1ccc(CC2SC(=O)NC2=O)cc1)c1ccccn1.O=C(O)/C=C\C(=O)O` (stereo unspecified) [ROSIGLITAZONE MALEATE], the “Bacterial Biotransformation” value in series [1], in series [2], in series [3], in [4], in series [5] and in [6] was “Compound NOT metabolized” each time. Also, the “Bacterial Biotransformation” value in [7] is given as “Compound NOT metabolized”; in series [8], “Compound NOT metabolized”; in series [9], “Compound metabolized”; in series [10] it was “Compound metabolized”; in series [11], “Compound metabolized”; in series [12], “Compound NOT metabolized”. Moreover, the “Bacterial Biotransformation” value is “Compound NOT metabolized” in series [13]; “Compound NOT metabolized” in [14]; “Compound metabolized” in [15]; “Compound NOT metabolized” in series [16]; “Compound metabolized” in series [17]; “Compound NOT metabolized” in series [18]. The “Bacterial Biotransformation” value in series [19] and in [20] was “Compound NOT metabolized” each time.
Consider `CCS(=O)(=O)CCn1c([N+](=O)[O-])cnc1C` [TINIDAZOLE], for which the “Bacterial Biotransformation” value in [1], in [2], in series [3], in series [4], in series [5] and in series [6] was “Compound metabolized” in each case. The “Bacterial Biotransformation” value in [7], in series [8], in series [9], in [10], in series [11] and in [12] was “Compound metabolized” in each case. Also, the “Bacterial Biotransformation” value in [13], in series [14], in series [15], in [16], in [17] and in [18] was “Compound metabolized” throughout. Also, the “Bacterial Biotransformation” value in series [19] and in [20] was “Compound metabolized” throughout.
Consider `COc1ccnc(C[S+]([O-])c2nc3ccc(OC(F)F)cc3[nH]2)c1OC` (stereo unspecified) [PANTOPRAZOLE], for which the “Bacterial Biotransformation” value was “Compound metabolized” in [1]; “Compound metabolized” in series [2]; “Compound metabolized” in series [3]; “Compound metabolized” in series [4]; “Compound metabolized” in [5]; “Compound NOT metabolized” in series [6]. Further, the “Bacterial Biotransformation” value in series [7], in [8], in series [9], in [10], in [11] and in series [12] was “Compound metabolized” in each case. Besides, the “Bacterial Biotransformation” value in [13] is recorded as “Compound NOT metabolized”; in series [14], “Compound metabolized”; in series [15], “Compound metabolized”; in series [16], “Compound metabolized”; in [17], “Compound metabolized”; in series [18], “Compound NOT metabolized”. Moreover, the “Bacterial Biotransformation” value in series [19] and in series [20] was “Compound metabolized” throughout.
With `C#C[C@]1(OC(C)=O)CC[C@H]2[C@@H]3CCC4=C[C@@H](OC(C)=O)CC[C@@H]4[C@H]3CC[C@@]21C` [ETHYNODIOL DIACETATE], the “Bacterial Biotransformation” value is given as “Compound metabolized” in series [1]; “Compound metabolized” in series [2]; “Compound NOT metabolized” in series [3]; “Compound metabolized” in series [4]; “Compound metabolized” in [5]; “Compound metabolized” in [6]. Besides, the “Bacterial Biotransformation” value in series [7], in series [8], in series [9], in series [10], in series [11] and in series [12] was “Compound metabolized” throughout. Moreover, the “Bacterial Biotransformation” value in series [14], in series [15], in [16], in [17], in series [18] and in [19] was “Compound metabolized” in each case. Also, the “Bacterial Biotransformation” value in series [20] is recorded as “Compound metabolized”.
Take `C[C@]12C=CC(=O)C=C1CC[C@@H]1[C@@H]2C(=O)C[C@@]2(C)[C@H]1CC[C@]2(O)C(=O)CO` [PREDNISONE]: the “Bacterial Biotransformation” value in [1] is on record as “Compound NOT metabolized”; in [2], “Compound metabolized”; in [3], “Compound NOT metabolized”; in series [4], “Compound metabolized”; in series [5], “Compound metabolized”; in series [6], “Compound NOT metabolized”. Moreover, the “Bacterial Biotransformation” value in series [7], in series [8], in series [9], in [10], in series [11] and in series [12] was “Compound metabolized” in each case. Further, the “Bacterial Biotransformation” value is recorded as “Compound NOT metabolized” in [13]; “Compound metabolized” in series [14]; “Compound metabolized” in [15]; “Compound NOT metabolized” in series [16]; “Compound NOT metabolized” in series [18]; “Compound metabolized” in series [19].
`CC1=C(CC(=O)O)c2cc(F)ccc2/C1=C\c1ccc([S+](C)[O-])cc1` (stereo unspecified): the “Bacterial Biotransformation” value was “Compound NOT metabolized” in [1]; “Compound metabolized” in series [2]; “Compound NOT metabolized” in [3]; “Compound metabolized” in [4]; “Compound NOT metabolized” in series [5]; “Compound NOT metabolized” in series [6]. Moreover, the “Bacterial Biotransformation” value is “Compound NOT metabolized” in series [7]; “Compound NOT metabolized” in series [8]; “Compound metabolized” in series [9]; “Compound metabolized” in series [10]; “Compound metabolized” in series [11]; “Compound metabolized” in [12]. Also, the “Bacterial Biotransformation” value was “Compound metabolized” in series [13]; “Compound metabolized” in series [14]; “Compound metabolized” in [15]; “Compound NOT metabolized” in [16]; “Compound metabolized” in series [17]; “Compound metabolized” in series [18]. In addition, the “Bacterial Biotransformation” value in [19] is listed as “Compound metabolized”.
